PubChem BioAssay (NCI)
Where “and” joins values, the source holds several entries; their conditions need not be identical. Equal entries are not always repeated.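 Cells were grown in 96-well plates and exposed to each compound for 48 hours at five concentrations; endpoints were interpolated linearly between bracketing concentrations, or set to the highest concentration if not reached. TGI: total growth inhibition.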

Columns and labels:
Assay in all cases: NCI-60 cell line screen, 48 h
NCI/ADR-RES ovarian = system: NCI/ADR-RES ovarian
UACC-257 melanoma = system: UACC-257 melanoma
MOLT-4 leukemia = system: MOLT-4 leukemia
SW-620 colon = system: SW-620 colon
NCI-H460 lung = system: NCI-H460 lung
786-0 renal = system: 786-0 renal
HT29 colon = system: HT29 colon
KM12 colon = system: KM12 colon
SF-539 CNS = system: SF-539 CNS
IGROV1 ovarian = system: IGROV1 ovarian

Row | Structure (SMILES) | TGI (NCI/ADR-RES ovarian) [µM] | TGI (UACC-257 melanoma) [µM] | TGI (MOLT-4 leukemia) | TGI (SW-620 colon) [µM] | TGI (NCI-H460 lung) [µM] | TGI (786-0 renal) [µM] | TGI (HT29 colon) [µM] | TGI (KM12 colon) [µM] | TGI (SF-539 CNS) [µM] | TGI (IGROV1 ovarian) [µM]
1 | CC1CC/C(=C\c2ccc(F)cc2)C2=C1C(c1ccc(F)cc1)NC(=S)N2 (stereo not given) | > 100 | > 100 | > 100 µM | > 100 | > 100 | > 100 | > 100 | > 100 | > 100 | > 100
2 | CSC(=N/N=C(\C)c1ccc(S(=O)(=O)N(C)c2ccccc2)cc1)SC | > 100 | > 100 | > 100 µM | > 100 | > 100 | > 100 | > 100 | > 100 | > 100 | > 100
3 | O=C(Nc1ccccc1C(=O)O)C(=Cc1ccccc1O)NC(=O)c1ccccc1 | > 100 | > 100 | > 100 µM | > 100 | > 100 | > 100 | > 100 | > 100 | > 100 | > 100
4 | O=C(O)CCC(NC(=O)/C(=C/c1ccccc1)NC(=O)c1ccccc1)C(=O)O (stereo not given) | > 100 | > 100 | > 100 µM | > 100 | > 100 | > 100 | > 100 | > 100 | > 100 | > 100
5 | COc1cc2c3c4[n+](cc2c(OC)c1OC)CCC4CCC3 (stereo not given) | > 100 | > 100 | > 100 µM | > 100 | > 100 | > 100 | > 100 | 99.5 | > 100 | > 100
6 | NC(=O)c1ccc(S(=O)(=NS(=O)(=O)c2ccccc2)c2ccc(C(N)=O)cc2)cc1 | > 100 | > 100 | > 100 µM | > 100 | > 100 | > 100 | > 100 | > 100 | > 100 | > 100
7 | O=C1CCc2c(sc3ncnc(Nc4cccc(Br)c4)c23)C1 | > 26.7 | 11.6 | > 27 µM | 11.6 | 12.9 | 19 | 27 | 12.3 | 13.2 | 12.6
8 | Cc1nc(C)c(C(=O)NNC(=O)c2ccccc2)cc1C(=O)NNC(=O)c1ccccc1 | > 100 | > 100 | > 100 µM | > 100 | > 100 | > 100 | > 100 | > 10 | > 100 | > 10
9 | CC(=O)OC1COC(n2c(N)c(C#N)c(-c3ccccc3)c(C#N)c2=S)C(OC(C)=O)C1OC(C)=O (stereo not given) | > 100 | > 100 | 54.3 µM and 75.4 µM | > 100 | > 100 | > 100 | > 100 | > 100 | > 100 | > 100
10 | C[C@@H]1CC(=O)[C@@]2(C)[C@](O)(CCC3O[C@]32C)[C@@]12CC(c1ccoc1)OC2=O (stereo not given in full) | > 100 | > 100 | 58.5 µM | > 100 | > 100 | > 100 | > 100 | > 100 | > 100 | > 100
11 | CCOC(=O)CCC1(C(=O)O[C@@H]2C[C@H](C)CC[C@H]2C(C)C)CCCCC1=O (stereo not given in full) | > 100 | 60 | > 100 µM | > 100 | > 100 | > 100 | > 100 | > 100 | > 100 | > 100
12 | COc1ccc(C2=C(N)c3cc(OC)ccc3C2=O)cc1 | > 100 | > 100 | > 100 µM | > 100 | > 100 | > 100 | > 100 | > 100 | > 100 | > 100
13 | COc1ccc(-c2nc3ncccn3c2-c2ccc(S(C)(=O)=O)cc2)cc1 | > 100 | > 100 | > 100 µM | > 100 | > 100 | > 100 | > 100 | > 100 | > 100 | > 100
14 | O=C1/C(=C/Cc2ccco2)N=C(c2ccccc2)N1c1nc2c(Cl)cc(Cl)cc2s1 | 84.5 | > 100 | 33.3 µM | > 100 | > 100 | > 100 | 98.2 | > 100 | 61.3 | > 100
15 | NC(=O)c1nnc2c(F)cccc2c1N | > 100 | > 100 | > 100 µM | > 100 | > 100 | > 100 | > 100 | > 100 | > 100 | > 100
16 | CC(=O)c1nc(C#N)c(N)o1 | > 100 | > 100 | > 100 µM | > 100 | > 100 | > 100 | > 100 | > 100 | > 100 | > 100
17 | O=C1CSC(c2cc3cc(Br)ccc3nc2Cl)N1c1ccc(F)c(Cl)c1 (stereo not given) | > 50 | > 50 | 32.9 µM | > 50 | > 50 | > 50 | > 50 | > 50 | > 50 | > 50
18 | S=C1NNC(=S)NN1 | > 1 | > 1 | 0.898 µM | > 1 | > 1 | > 1 | > 1 | > 1 | > 1 | > 1
